Experimental data from PubChem BioAssay (NCI).
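Test compounds were applied to cells in 96-well plates for 48 hours at 5 doses. The concentration for 50% growth inhibition is given as GI50. TGI marks complete inhibition of growth.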

Tests used:
Experiment in all cases: NCI-60 cell line screen, 48 h; in the data active means GI50 below about 0.43 µM; inactive means the rest
HL-60(TB) leukemia = system: HL-60(TB) leukemia
LOX IMVI melanoma = system: LOX IMVI melanoma
MALME-3M melanoma = system: MALME-3M melanoma
SNB-75 CNS = system: SNB-75 CNS
COLO 205 colon = system: COLO 205 colon
HCT-15 colon = system: HCT-15 colon
HCC-2998 colon = system: HCC-2998 colon
PC-3 prostate = system: PC-3 prostate
SK-MEL-2 melanoma = system: SK-MEL-2 melanoma
K-562 leukemia = system: K-562 leukemia
SK-OV-3 ovarian = system: SK-OV-3 ovarian
SK-MEL-5 melanoma = system: SK-MEL-5 melanoma
OVCAR-3 ovarian = system: OVCAR-3 ovarian
HOP-62 NSCLC = system: HOP-62 NSCLC
DU-145 prostate = system: DU-145 prostate
NCI-H522 lung = system: NCI-H522 lung
CAKI-1 renal = system: CAKI-1 renal
OVCAR-5 ovarian = system: OVCAR-5 ovarian
NCI-H23 lung = system: NCI-H23 lung
BT-549 breast = system: BT-549 breast
SF-268 CNS = system: SF-268 CNS
SNB-19 CNS = system: SNB-19 CNS
HOP-92 NSCLC = system: HOP-92 NSCLC
U251 CNS = system: U251 CNS
HT29 colon = system: HT29 colon
OVCAR-4 ovarian = system: OVCAR-4 ovarian
OVCAR-8 ovarian = system: OVCAR-8 ovarian
RXF 393 renal = system: RXF 393 renal
EKVX NSCLC = system: EKVX NSCLC

COC(=O)[C@]12CC[C@@H](C)[C@H](C)[C@@H]1C1=CC[C@@H]3[C@@]4(C)CC(=O)[C@H](OC(=O)c5ccco5)[C@@]5(C)COC(=C45)C[C@@]3(C)[C@]1(C)CC2
active: GI50 (COLO 205 colon) 0.342 µM | GI50 (K-562 leukemia) 0.413 µM | GI50 (SK-MEL-5 melanoma) 0.414 µM
inactive: GI50 (LOX IMVI melanoma) 0.427 µM | GI50 (MALME-3M melanoma) 0.556 µM | GI50 (SNB-75 CNS) 6.3 µM | GI50 (HCT-15 colon) 0.54 µM | GI50 (PC-3 prostate) 0.592 µM | GI50 (SK-MEL-2 melanoma) 5.63 µM | GI50 (SK-OV-3 ovarian) 4.67 µM | GI50 (OVCAR-3 ovarian) 2.74 µM | GI50 (HOP-62 NSCLC) 17.6 µM | GI50 (DU-145 prostate) 9.04 µM | GI50 (NCI-H522 lung) 3.1 µM | GI50 (CAKI-1 renal) 0.729 µM | GI50 (OVCAR-5 ovarian) > 100 µM | GI50 (NCI-H23 lung) 0.936 µM | GI50 (BT-549 breast) 2.91 µM | GI50 (SF-268 CNS) 4.86 µM | GI50 (SNB-19 CNS) 3.57 µM | GI50 (HOP-92 NSCLC) 14.9 µM | GI50 (U251 CNS) 0.703 µM | GI50 (HT29 colon) 0.523 µM | GI50 (OVCAR-4 ovarian) 2.12 µM | GI50 (OVCAR-8 ovarian) 2.47 µM | GI50 (RXF 393 renal) 67.9 µM | GI50 (EKVX NSCLC) 2.09 µM
2.54 µM: TGI (SK-MEL-5 melanoma)
2.93 µM: TGI (COLO 205 colon)
> 100 µM: TGI (HL-60(TB) leukemia) | TGI (LOX IMVI melanoma) | TGI (MALME-3M melanoma) | TGI (SNB-75 CNS) | TGI (HCT-15 colon) | TGI (HCC-2998 colon) | TGI (PC-3 prostate) | TGI (SK-MEL-2 melanoma) | TGI (K-562 leukemia) | TGI (SK-OV-3 ovarian) | TGI (OVCAR-3 ovarian) | TGI (HOP-62 NSCLC) | TGI (DU-145 prostate) | TGI (NCI-H522 lung) | TGI (CAKI-1 renal) | TGI (OVCAR-5 ovarian) | TGI (NCI-H23 lung) | TGI (BT-549 breast) | TGI (SF-268 CNS) | TGI (SNB-19 CNS) | TGI (HOP-92 NSCLC) | TGI (U251 CNS) | TGI (HT29 colon) | TGI (OVCAR-4 ovarian) | TGI (OVCAR-8 ovarian) | TGI (RXF 393 renal) | TGI (EKVX NSCLC)
